Source: patent US8604225B2, “Method of producing hydroxymethyl-furfural” (Novozymes, A/S, priority 2010, dated 2013)
Where two headings read alike, the source gives them in different places.

Experiments:
[1] = HMF distribution between MIBK phase and aqueous phase with different salts and boric acid; assay type: physicochemical; conditions: 30 wt % fructose, B(OH)3 0.3 g and salt 3 mmol (anion) in 3 mL, MIBK:aqueous 4:1, 150° C. 45 min
Method: An aqueous solution containing 30 wt % fructose (3 mL, 5.7 mmol) was mounted in an Ace vial pressure tube (stable to ˜20 Bar) and solid B(OH)3 (0.3 g, 5 mmol) and solid salt (3 mmol with respect to the anion) were added to the solution. MIBK was added as extraction solvent so that an organic:aqueous volume ratio of 4:1 was obtained. The tube with the reaction mixture was placed in a preheated oil bath for a specified time under magnetic stirring (420 rpm) at a 150° C. for 45 min (reaction times were measured after a stable oil bath temperature had been reached). After the reaction, the tube was removed from the oil bath and cooled to room temperature before a sample was taken for analysis. A sample of the reaction mixture was collected and filtered through a syringe filter (0.45 μm PTFE), mixed with an internal standard (i-PrOH) and analyzed via HPLC.
The R value indicated in table 9 is the HMF distribution obtained between the MIBK phase and the aqueous phase, i.e. [HMF]MIBK/[HMF]aq

[2] = molecular target: immobilized glucose isomerase (Sweetzyme™) (Streptomyces murinus, UniProt P37031)
Sequence of immobilized glucose isomerase (Sweetzyme™) (P37031 whole entry): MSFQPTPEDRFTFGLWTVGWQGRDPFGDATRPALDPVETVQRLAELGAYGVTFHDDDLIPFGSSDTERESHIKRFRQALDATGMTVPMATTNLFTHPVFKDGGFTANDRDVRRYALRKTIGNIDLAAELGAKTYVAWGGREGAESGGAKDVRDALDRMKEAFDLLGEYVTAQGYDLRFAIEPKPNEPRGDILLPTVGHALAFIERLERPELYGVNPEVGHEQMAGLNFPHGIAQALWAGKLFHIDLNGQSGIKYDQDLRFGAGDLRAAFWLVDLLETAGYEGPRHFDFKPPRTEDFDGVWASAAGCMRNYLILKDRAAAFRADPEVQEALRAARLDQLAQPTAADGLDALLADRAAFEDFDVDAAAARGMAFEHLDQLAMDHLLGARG
Method: 3 gram immobilized glucose isomerase (Sweetzyme™) was loaded in a lab-scale column heated to 60° C. and a substrate flow of 50 gram/hour was applied. […] Samples were collected on a regular basis for HPLC analysis and the enzyme activity was calculated according to the following equation (Jorgensen, O. B., et al., Starch-Starke, 1988. 40(8), 307-313):
[formula] where: A: specific activity of immobilized enzyme (micromol/min/g enzyme) (IGIU/g: Immobilized Glucose Isomerase Units/g) 0.926: unit conversion factor Fw: Flow rate of syrup (g/h) w: Weight of enzyme (g) DP1: Inlet % of (glucose+fructose) in dry substance (100 at analytical conditions) DS: Dry substance content (%) X: Conversion=outlet % fructose/DP1 Xi: inlet % fructose/DP1 Xe: X at equilibrium (0.51 at 60° C.) DP1, Xi and Xe were assumed constant with following values: DP1: 99.7 Xi: 0 Xe: 0.5078

Compound: O=[N+]([O-])[O-].[Li+] [LiNO3, lithium nitrate]
- R value (MIBK:aq) [1]: 0.9

Compound: [I-].[K+] [KI, potassium iodine]
- R value (MIBK:aq) [1]: 0.7

Compound: [Br-].[K+] [KBr, potassium bromide]
- R value (MIBK:aq) [1]: 0.9

Compound: [Cl][Fe]([Cl])[Cl] [FeCl3]
- R value (MIBK:aq) [1]: 1.1

Compound: O=S(=O)([O-])[O-].[Mg+2] [MgSO4, Magnesium sulfate]
- Activity ([2]; Column 6: 102.98 g/l MgSO4, time 17.50 h): 412.41 IGIU/g
- Activity ([2]; Column 6: 102.98 g/l MgSO4, time 45.50 h): 420.62 IGIU/g
- Activity ([2]; Column 6: 102.98 g/l MgSO4, time 66.00 h): 419.46 IGIU/g
- Activity ([2]; Column 6: 102.98 g/l MgSO4, time 138.00 h): 428.95 IGIU/g
- Activity ([2]; Column 6: 102.98 g/l MgSO4, time 162.83 h): 436.79 IGIU/g
- Activity ([2]; Column 6: 102.98 g/l MgSO4, time 186.83 h): 452.92 IGIU/g
- Activity ([2]; Column 6: 102.98 g/l MgSO4, time 210.83 h): 465.04 IGIU/g
- Activity ([2]; Column 6: 102.98 g/l MgSO4, time 233.17 h): 424.51 IGIU/g
- Activity ([2]; Column 6: 102.98 g/l MgSO4, time 308.58 h): 370.47 IGIU/g
- Activity ([2]; Column 6: 102.98 g/l MgSO4, time 330.75 h): 366.35 IGIU/g
- Activity ([2]; Column 6: 102.98 g/l MgSO4, time 378.17 h): 324.95 IGIU/g
- Activity ([2]; Column 6: 102.98 g/l MgSO4, time 473.75 h): 306.53 IGIU/g
- Activity ([2]; Column 6: 102.98 g/l MgSO4, time 497.67 h): 298.41 IGIU/g
- Activity ([2]; Column 6: 102.98 g/l MgSO4, time 521.58 h): 299.60 IGIU/g
- Activity ([2]; Column 6: 102.98 g/l MgSO4, time 568.50 h): 310.87 IGIU/g

Compound: [Br-].[Na+] [NaBr, sodium bromide]
- R value (MIBK:aq) [1]: 0.9

Compound: O=[N+]([O-])[O-].[Na+] [NaNO3, sodium nitrate]
- R value (MIBK:aq) [1]: 0.9

Compound: O=S(=O)([O-])[O-].[K+].[K+] [K2SO4, potassium sulphate]
- R value (MIBK:aq) [1]: 1.5

Compound: O=S(=O)([O-])[O-].[Na+].[Na+] [Na2SO4, sodium sulphate]
- R value (MIBK:aq) [1]: 1.7
- Activity ([2]; Column 5: 61.08 g/l Na2SO4, time 17.83 h): 418.97 IGIU/g
- Activity ([2]; Column 5: 61.08 g/l Na2SO4, time 45.83 h): 433.23 IGIU/g
- Activity ([2]; Column 5: 61.08 g/l Na2SO4, time 66.33 h): 432.90 IGIU/g
- Activity ([2]; Column 5: 61.08 g/l Na2SO4, time 138.33 h): 427.76 IGIU/g
- Activity ([2]; Column 5: 61.08 g/l Na2SO4, time 163.17 h): 439.97 IGIU/g
- Activity ([2]; Column 5: 61.08 g/l Na2SO4, time 187.17 h): 449.17 IGIU/g
- Activity ([2]; Column 5: 61.08 g/l Na2SO4, time 211.17 h): 437.81 IGIU/g
- Activity ([2]; Column 5: 61.08 g/l Na2SO4, time 233.50 h): 449.65 IGIU/g
- Activity ([2]; Column 5: 61.08 g/l Na2SO4, time 308.92 h): 437.45 IGIU/g
- Activity ([2]; Column 5: 61.08 g/l Na2SO4, time 331.08 h): 437.38 IGIU/g
- Activity ([2]; Column 5: 61.08 g/l Na2SO4, time 378.50 h): 429.47 IGIU/g
- Activity ([2]; Column 5: 61.08 g/l Na2SO4, time 474.08 h): 381.79 IGIU/g
- Activity ([2]; Column 5: 61.08 g/l Na2SO4, time 498.00 h): 387.83 IGIU/g
- Activity ([2]; Column 5: 61.08 g/l Na2SO4, time 521.92 h): 382.13 IGIU/g
- Activity ([2]; Column 5: 61.08 g/l Na2SO4, time 547.00 h): 394.91 IGIU/g
- Activity ([2]; Column 5: 61.08 g/l Na2SO4, time 568.83 h): 393.80 IGIU/g
- Activity ([2]; Column 5: 61.08 g/l Na2SO4, time 641.58 h): 376.25 IGIU/g
- Activity ([2]; Column 5: 61.08 g/l Na2SO4, time 669.33 h): 370.35 IGIU/g
- glucose isomerase performance at high salt concentration ([2]; as shown in example 12): comparable with a normal glucose substrate
- stability of Sweetzyme™ in the presence of the salt ([2]; conclusion of example 12): good stability

Compound: O=[N+]([O-])[O-].[K+] [KNO3, potassium nitrate]
- R value (MIBK:aq) [1]: 0.8

Compound: [Cl][Al]([Cl])[Cl] [AlCl3, aluminum chloride]
- R value (MIBK:aq) [1]: 1.1

Compound: [Br-].[Li+] [LiBr, lithium bromide]
- R value (MIBK:aq) [1]: 1.0

Compound: [Cl-].[Li+] [LiCl, lithium chloride]
- R value (MIBK:aq) [1]: 1.1

Compound: [Cl-].[Cl-].[Mg+2] [MgCl]
- R value (MIBK:aq) [1]: 1.1
